From publication PMC12655529, “Serendipitous Hinge Modulation Hypothetically Reprograms Caerin 1.1-LC Antibacterial Mechanism and Gram-Negative Selectivity” (Pharmaceutics, 2025)
≈ marks a conversion by molar mass, not a printed value. Square brackets hold non-standard residues; d marks the D form. Ends that are not written are not given here. Peptide text beside a SMILES is read from it.

Experiments:
Gram-positive bacteria = assay: Geometric mean MIC and therapeutic index, Gram-positive; format: cell-based; conditions: geometric mean of MICs
[1] = system: Pseudomonas aeruginosa ATCC 9027; format: cell-based
Description: (§1) The antimicrobial activities of the peptides were evaluated by determining their minimal inhibitory concentration (MIC) and minimal bactericidal concentration (MBC) values following reported protocols [20]. The tested microorganisms included seven Gram-negative bacterial strains (Escherichia coli ATCC 8739, E. coli ATCC-BAA 2340, E. coli NCTC 13846, Klebsiella pneumoniae ATCC 43816, K. pneumoniae ATCC BAA-2342, Pseudomonas aeruginosa ATCC 9027, Acinetobacter baumannii ATCC BAA-747), three Gram-positive bacterial strains (Staphylococcus aureus ATCC 6538, Enterococcus faecalis NCTC 12697, MRSA NCTC 12493, and the fungal strain Candida albicans ATCC 10231. For the assay, each bacterial strain was cultured overnight at 37 °C in 100 mL of medium in a flask. The cultures were then subcultured to reach the logarithmic growth phase and diluted to 5 × 10^5 CFU/mL. Peptide samples were serially diluted two-fold in microplates, with concentrations ranging from 128 μM to 1 μM. The diluted bacterial suspensions were mixed with the peptide solutions and incubated overnight at 37 °C. The MIC values were determined by measuring the absorbance of each well using a Synergy HT plate reader (Agilent, Cheshire, UK). For MBC determination, aliquots from wells showing no visible growth were inoculated onto agar plates to assess bacterial viability. Each experiment was repeated independently three times and conducted in three independent replicates.

[2] = system: K. pneumoniae ATCC BAA-2342; format: cell-based, Klebsiella pneumoniae
[3] = system: Escherichia coli ATCC 8739; format: cell-based; conditions: ATCC 8739
Description: as §1

horse red blood cells = assay: Haemolysis assay; format: cell-based; conditions: concentration inducing 10% haemolysis of horse erythrocytes; 4% (v/v) in PBS, 2 h, 37 °C, absorbance 570 nm; no haemolysis at maximum testing concentration (128 μM) recorded as 256 μM
Description: The peptide cytotoxicity against mammalian erythrocytes was evaluated by haemolysis assay on horse red blood cells (E&O Laboratories Ltd., Falkirk, UK). Fresh horse blood was washed three times with PBS and resuspended to a final concentration of 4% (v/v) in PBS. The diluted blood suspension was then mixed with peptide solutions at varying concentrations and incubated for 2 h at 37 °C. Red blood cell suspensions treated with 0.1% Triton X-100 and PBS were used as controls. The Triton X-100-treated suspension was the positive control (for 100% haemolysis), while the PBS-treated suspension was the blank control. Following incubation, the mixtures were centrifuged at 1000× g for 10 min to separate erythrocytes from the supernatant. The absorbance of the supernatants was detected at 570 nm. The percentage haemolysis was calculated by following the equationPercentage Haemolysis = (AbsSample − AbsBlank)/(AbsPositive − AbsBlank) × 100%

Gram-negative bacteria = assay: Geometric mean MIC and therapeutic index, Gram-negative; format: cell-based; conditions: geometric mean of MICs
[4] = system: Acinetobacter baumannii ATCC BAA-747; format: cell-based; conditions: ATCC BAA-747
Description: as §1

[5] = system: Enterococcus faecalis NCTC 12697; format: cell-based; conditions: NCTC 12697
Description: as §1

MRSA NCTC 12493 = format: cell-based, Staphylococcus aureus
Description: as §1

E. coli NCTC 13846 = format: cell-based, Escherichia coli
Description: as §1

E. coli ATCC BAA-2340 = format: cell-based, Escherichia coli
Description: as §1

[6] = system: Staphylococcus aureus ATCC 6538; format: cell-based; conditions: ATCC 6538
Description: as §1

[7] = system: Klebsiella pneumoniae ATCC 43816; format: cell-based; conditions: ATCC 43816
Description: as §1

E. coli (ATCC-BAA 2340) = format: cell-based, Escherichia coli; conditions: ATCC-BAA 2340
Description: The peptide sensitivity was determined in different salt- and serum-containing environments. Bacterial strains were prepared following the MIC detection protocol described previously. To evaluate peptide sensitivity under physiological conditions, various concentrations of salt ions (150 mM NaCl, 4.5 mM KCl, 2 mM CaCl2, 1 mM MgCl2, 8 µM ZnCl2, 6 µM NH4Cl, or 4 µM FeCl3) and serum (10% FBS) were prepared in McCartney bottles prior to the addition of bacterial suspensions. The subcultured bacterial suspensions were then introduced to these modified media conditions. For MIC determination, the treated bacterial suspensions were diluted and dispensed into 96-well plates containing peptide solutions at graded concentrations. This assay allowed for the detection of potential alterations in MIC values, serving as an indicator of peptide sensitivity under different physiological conditions. All experiments were independently repeated three times, each with three replicates.

With “GLLSVLGSLKKIVPKAVPKIAEKL-NH2 [Caerin 1.1-LC 11K.19K.PKAVP]” the “GM MIC Gram-Positive” value (Gram-positive bacteria) was 161.5 µM, the “MBC, P. aeruginosa (ATCC 9027)” value [1] was 64 µM and the “MIC, P. aeruginosa (ATCC 9027)” value [1] was 32 µM. For the same molecule, the “MBC, K. pneumoniae (ATCC BAA-2342)” value [2] was greater than 128 µM, the “MIC, K. pneumoniae (ATCC BAA-2342)” value [2] was greater than 128 µM and the MBC, E. coli (ATCC 8739) [3] was 8 µM. For the same molecule, the MIC, E. coli (ATCC 8739) [3] was 8 µM, the HC10 (horse red blood cells) was 256 µM and the “GM MIC Gram-Negative” value (Gram-negative bacteria) was 26.08 µM. For the same molecule, the MBC, A. baumannii (ATCC BAA-747) [4] was 128 µM, the MIC, A. baumannii (ATCC BAA-747) [4] was 128 µM and the “MBC, E. faecalis (NCTC 12697)” value [5] was greater than 128 µM. For the same molecule, the “MIC, E. faecalis (NCTC 12697)” value [5] was greater than 128 µM, the MBC, MRSA (NCTC 12493) (MRSA NCTC 12493) was 64 µM and the MIC, MRSA (NCTC 12493) (MRSA NCTC 12493) was 64 µM. The MBC, E. coli (NCTC 13846) (E. coli NCTC 13846) was 2 µM, the MIC, E. coli (NCTC 13846) (E. coli NCTC 13846) was 2 µM and the MBC, E. coli (ATCC BAA-2340) (E. coli ATCC BAA-2340) was 8 µM. For the same molecule, the MIC, E. coli (ATCC BAA-2340) (E. coli ATCC BAA-2340) was 8 µM, the “MBC, S. aureus (ATCC 6538)” value [6] was greater than 128 µM and the “MIC, S. aureus (ATCC 6538)” value [6] was greater than 128 µM. The MBC, K. pneumoniae (ATCC 43816) [7] was 64 µM and the MIC, K. pneumoniae (ATCC 43816) [7] was 64 µM.
With `CC[C@H](C)[C@H](NC(=O)[C@H](CCCCN)NC(=O)[C@@H]1CCCN1C(=O)[C@@H](CC(C)C)NC(=O)[C@H](C)NC(=O)[C@H](CCCCN)NC(=O)[C@@H]1CCCN1C(=O)[C@@H](NC(=O)[C@@H](NC(=O)[C@H](CC(C)C)NC(=O)[C@H](CCCCN)NC(=O)[C@H](CC(C)C)NC(=O)[C@H](CO)NC(=O)CNC(=O)[C@H](CC(C)C)NC(=O)[C@@H](NC(=O)[C@H](CO)NC(=O)[C@H](CC(C)C)NC(=O)[C@H](CC(C)C)NC(=O)CN)C(C)C)[C@@H](C)CC)C(C)C)C(=O)N[C@@H](C)C(=O)N[C@@H](CCC(=O)O)C(=O)N[C@@H](CCCCN)C(=O)N[C@@H](CC(C)C)C(N)=O` [Caerin 1.1-LC PKAL(D)P] (H-GLLSVLGSLKLIVPKA[dL]PKIAEKL-NH2; N-terminus assumed) the “GM MIC Gram-Positive” value (Gram-positive bacteria) was 64 µM, the “MBC, P. aeruginosa (ATCC 9027)” value [1] was 4/4 µM and the “MIC, P. aeruginosa (ATCC 9027)” value [1] was 4/4 µM. It also gave an MBC, K. pneumoniae (ATCC BAA-2342) [2] of 4 µM (≈ 10 µg/mL), an MIC, K. pneumoniae (ATCC BAA-2342) [2] of 4 µM (≈ 10 µg/mL) and an MBC, E. coli (ATCC 8739) [3] of 2 µM (≈ 5 µg/mL). For the same molecule, the MIC, E. coli (ATCC 8739) [3] was 2 µM (≈ 5 µg/mL), the HC10 (horse red blood cells) was 43.4 µM and the “GM MIC Gram-Negative” value (Gram-negative bacteria) was 4.87 µM. The MBC, A. baumannii (ATCC BAA-747) [4] was 32 µM (≈ 80 µg/mL), the MIC, A. baumannii (ATCC BAA-747) [4] was 32 µM (≈ 80 µg/mL) and the “MBC, E. faecalis (NCTC 12697)” value [5] was greater than 128 µM. The “MIC, E. faecalis (NCTC 12697)” value [5] was greater than 128 µM, the “MBC, MRSA (NCTC 12493)” value (MRSA NCTC 12493) was 8 µM (≈ 20 µg/mL) and the “MIC, MRSA (NCTC 12493)” value (MRSA NCTC 12493) was 4 µM (≈ 10 µg/mL). The “MIC, Ca^2+” value (E. coli (ATCC-BAA 2340)) was 128 µM (≈ 320 µg/mL), the “MIC, Control” value (E. coli (ATCC-BAA 2340)) was 2 µM (≈ 5 µg/mL) and the “MIC, FBS” value (E. coli (ATCC-BAA 2340)) was 16 µM (≈ 40 µg/mL). For the same molecule, the “MIC, Fe^3+” value (E. coli (ATCC-BAA 2340)) was 2 µM (≈ 5 µg/mL), the “MIC, K^+” value (E. coli (ATCC-BAA 2340)) was 2 µM (≈ 5 µg/mL) and the “MIC, Mg^2+” value (E. coli (ATCC-BAA 2340)) was 16 µM (≈ 40 µg/mL). For the same molecule, the “MIC, NH4^+” value (E. coli (ATCC-BAA 2340)) was 2 µM (≈ 5 µg/mL), the “MIC, Na^+” value (E. coli (ATCC-BAA 2340)) was 4 µM (≈ 10 µg/mL) and the MBC, E. coli (NCTC 13846) (E. coli NCTC 13846) was 8 µM (≈ 20 µg/mL). It also gave an MIC, E. coli (NCTC 13846) (E. coli NCTC 13846) of 8 µM (≈ 20 µg/mL), an MBC, E. coli (ATCC BAA-2340) (E. coli ATCC BAA-2340) of 2 µM (≈ 5 µg/mL) and an MIC, E. coli (ATCC BAA-2340) (E. coli ATCC BAA-2340) of 2 µM (≈ 5 µg/mL). The MBC, S. aureus (ATCC 6538) [6] was 32 µM (≈ 80 µg/mL), the MIC, S. aureus (ATCC 6538) [6] was 32 µM (≈ 80 µg/mL) and the MBC, K. pneumoniae (ATCC 43816) [7] was 4 µM (≈ 10 µg/mL). It also gave an MIC, K. pneumoniae (ATCC 43816) [7] of 4 µM (≈ 10 µg/mL).
For “GLLSVLGSLKKIVPHVVPWIAKKL-NH2 [Caerin 1.1-LC 11K.12K.19W]”, the “GM MIC Gram-Positive” value (Gram-positive bacteria) was 2.97 µM, the “MBC, P. aeruginosa (ATCC 9027)” value [1] was 4/4 µM and the “MIC, P. aeruginosa (ATCC 9027)” value [1] was 4/4 µM. It also gave an MBC, K. pneumoniae (ATCC BAA-2342) [2] of 4 µM, an MIC, K. pneumoniae (ATCC BAA-2342) [2] of 4 µM and an MBC, E. coli (ATCC 8739) [3] of 2 µM. The MIC, E. coli (ATCC 8739) [3] was 2 µM, the HC10 (horse red blood cells) was 10.5 µM and the “GM MIC Gram-Negative” value (Gram-negative bacteria) was 4 µM. The MBC, A. baumannii (ATCC BAA-747) [4] was 4 µM, the MIC, A. baumannii (ATCC BAA-747) [4] was 4 µM and the “MBC, E. faecalis (NCTC 12697)” value [5] was 32 µM. For the same molecule, the “MIC, E. faecalis (NCTC 12697)” value [5] was 16 µM, the MBC, MRSA (NCTC 12493) (MRSA NCTC 12493) was 2 µM and the MIC, MRSA (NCTC 12493) (MRSA NCTC 12493) was 2 µM. For the same molecule, the “MIC, Ca^2+” value (E. coli (ATCC-BAA 2340)) was 8 µM, the “MIC, Control” value (E. coli (ATCC-BAA 2340)) was 4 µM and the “MIC, FBS” value (E. coli (ATCC-BAA 2340)) was 8 µM. For the same molecule, the “MIC, Fe^3+” value (E. coli (ATCC-BAA 2340)) was 4 µM, the “MIC, K^+” value (E. coli (ATCC-BAA 2340)) was 4 µM and the “MIC, Mg^2+” value (E. coli (ATCC-BAA 2340)) was 4 µM. The “MIC, NH4^+” value (E. coli (ATCC-BAA 2340)) was 4 µM, the “MIC, Na^+” value (E. coli (ATCC-BAA 2340)) was 4 µM and the “MBC, E. coli (NCTC 13846)” value (E. coli NCTC 13846) was 4 µM. The “MIC, E. coli (NCTC 13846)” value (E. coli NCTC 13846) was 2 µM, the MBC, E. coli (ATCC BAA-2340) (E. coli ATCC BAA-2340) was 2 µM and the MIC, E. coli (ATCC BAA-2340) (E. coli ATCC BAA-2340) was 2 µM. The MBC, S. aureus (ATCC 6538) [6] was 2 µM, the MIC, S. aureus (ATCC 6538) [6] was 2 µM and the MBC, K. pneumoniae (ATCC 43816) [7] was 4 µM. It also gave an MIC, K. pneumoniae (ATCC 43816) [7] of 4 µM.
